Key:
[1] = target: Adenosine receptor A1 (Homo sapiens) (UniProt P30542); assay: Binding affinity to recombinant human A1 receptor at 10 uM after 60 mins by scintillation counting analysis relative to control
[2] = target: Adenosine receptor A2a (Homo sapiens) (UniProt P29274); assay: Binding affinity to recombinant human A2A receptor at 10 uM after 120 mins by scintillation counting analysis relative to control
[3] = target: Adenosine receptor A3 (Homo sapiens) (UniProt P0DMS8); assay: Binding affinity to recombinant human A3 receptor at 10 uM after 120 mins by scintillation counting analysis relative to control
[4] = target: Type-2 angiotensin II receptor (Homo sapiens) (UniProt P50052); assay: Binding affinity to recombinant human AT2 receptor at 10 uM after 240 mins by scintillation counting analysis relative to control
[5] = target: Gastrin/cholecystokinin type B receptor (Homo sapiens) (UniProt P32239); assay: Binding affinity to recombinant human CCK2 at 10 uM after 60 mins by scintillation counting analysis relative to control
[6] = target: D(1A) dopamine receptor (Homo sapiens) (UniProt P21728); assay: Binding affinity to recombinant human dopamine receptor D1 at 10 uM after 60 mins by scintillation counting analysis relative to control
[7] = target: Endothelin receptor type B (Homo sapiens) (UniProt P24530); assay: Binding affinity to recombinant human ETB receptor at 10 uM after 120 mins by scintillation counting analysis relative to control
[8] = target: Galanin receptor type 2 (Homo sapiens) (UniProt O43603); assay: Binding affinity to recombinant human GAL2 receptor at 10 uM after 120 mins by scintillation counting analysis relative to control
[9] = target: Platelet-derived growth factor receptor (Mus musculus) (UniProt P05622+P26618); assay: Binding affinity to mouse PDGFR at 10 uM after 180 mins by scintillation counting analysis relative to control; assay type: protein-complex assay
[10] = target: Histamine H2 receptor (Homo sapiens) (UniProt P25021); assay: Binding affinity to recombinant human histamine H2 receptor at 10 uM after 120 mins by scintillation counting analysis relative to control
[11] = target: Melanocortin receptor 4 (Homo sapiens) (UniProt P32245); assay: Binding affinity to recombinant human MC4 receptor at 10 uM after 120 mins by scintillation counting analysis relative to control
[12] = target: Melatonin receptor type 1A (Homo sapiens) (UniProt P48039); assay: Binding affinity to recombinant human MT1 receptor at 10 uM after 240 mins by scintillation counting analysis relative to control
[13] = target: Muscarinic acetylcholine receptor M4 (Homo sapiens) (UniProt P08173); assay: Binding affinity to recombinant human muscarinic M4 receptor at 10 uM after 60 mins by scintillation counting analysis relative to control
[14] = target: Substance-P receptor (Homo sapiens) (UniProt P25103); assay: Binding affinity to human NK1 receptor at 10 uM after 30 mins by scintillation counting analysis relative to control
[15] = species: Homo sapiens; assay: Binding affinity to delta-2-opioid receptor (unknown origin) at 10 uM relative to control
[16] = target: Mu-type opioid receptor (Homo sapiens) (UniProt P35372); assay: Binding affinity to recombinant human mu opioid receptor at 10 uM after 120 mins by scintillation counting analysis relative to control
[17] = target: Prostaglandin E2 receptor EP4 subtype (Homo sapiens) (UniProt P35408); assay: Binding affinity to recombinant human EP4 receptor at 10 uM after 120 mins by scintillation counting analysis relative to control
[18] = target: Prostacyclin receptor (Homo sapiens) (UniProt P43119); assay: Binding affinity to recombinant human IP receptor at 10 uM after 60 mins by scintillation counting analysis relative to control
[19] = species: Homo sapiens; assay: Binding affinity to P2Y receptor (unknown origin) at 10 uM relative to control
[20] = target: 5-hydroxytryptamine receptor 3A (Homo sapiens) (UniProt P46098); assay: Binding affinity to recombinant human 5-HT3 receptor at 10 uM after 120 mins by scintillation counting analysis relative to control
[21] = target: 5-hydroxytryptamine receptor 6 (Homo sapiens) (UniProt P50406); assay: Binding affinity to recombinant human 5-HT6 receptor at 10 uM after 120 mins by scintillation counting analysis relative to control
[22] = target: Glucocorticoid receptor (Homo sapiens) (UniProt P04150); assay: Binding affinity to human GR at 10 uM after 360 mins by scintillation counting analysis relative to control
[23] = target: Estrogen receptor (Homo sapiens) (UniProt P03372); assay: Binding affinity to human ER at 10 uM after 1200 mins by scintillation counting analysis relative to control
[24] = target: Vasopressin V1a receptor (Homo sapiens) (UniProt P37288); assay: Binding affinity to recombinant human V1A receptor at 10 uM after 60 mins by scintillation counting analysis relative to control
[25] = target: Sodium-dependent dopamine transporter (Homo sapiens) (UniProt Q01959); assay: Binding affinity to dopamine transporter (unknown origin) at 10 uM relative to control
[26] = target: Polyunsaturated fatty acid 5-lipoxygenase (Homo sapiens) (UniProt P09917); assay: Binding affinity to recombinant human 5-LOX at 10 uM after 90 mins by fluorescence assay relative to control
[27] = target: Nitric oxide synthase, inducible (Mus musculus) (UniProt P29477); assay: Binding affinity to recombinant mouse iNOS at 10 uM after 120 mins by spectrophotometric analysis relative to control
[28] = target: cGMP-dependent 3',5'-cyclic phosphodiesterase (Homo sapiens) (UniProt O00408); assay: Binding affinity to recombinant human PDE2A1 at 10 uM after 20 mins by scintillation counting analysis relative to control
[29] = species: Bos taurus; assay: Binding affinity to bovine PDE6 at 10 uM after 60 mins by scintillation counting analysis relative to control
[30] = target: Caspase-3 (Homo sapiens) (UniProt P42574); assay: Binding affinity to recombinant human caspase 3 at 10 uM after 60 mins by fluorescence assay relative to control
[31] = target: M-phase inducer phosphatase 1 (Homo sapiens) (UniProt P30304); assay: Binding affinity to recombinant human phosphatase CDC25A at 10 uM after 20 mins by fluorescence assay relative to control
[32] = target: Acetylcholinesterase (Homo sapiens) (UniProt P22303); assay: Binding affinity to recombinant human acetylcholinesterase at 10 uM after 30 mins by spectrophotometric analysis relative to control
[33] = target: MAO-A (Homo sapiens, UniProt P21397); assay: Binding affinity to human MAO-A at 10 uM after 20 mins by spectrophotometric analysis relative to control; details: read-out: Activity
[34] = target: Centromere-associated protein E (Homo sapiens) (UniProt Q02224); assay: Binding affinity to recombinant human CENPE at 10 uM after 30 mins by spectrophotometric analysis relative to control
[35] = target: Prostaglandin G/H synthase 2 (Homo sapiens) (UniProt P35354); assay: Binding affinity to recombinant human COX2 at 10 uM after 5 mins by fluorescence assay relative to control
Sequence of Prostaglandin G/H synthase 2 (Homo sapiens) (P35354 whole entry, looked up): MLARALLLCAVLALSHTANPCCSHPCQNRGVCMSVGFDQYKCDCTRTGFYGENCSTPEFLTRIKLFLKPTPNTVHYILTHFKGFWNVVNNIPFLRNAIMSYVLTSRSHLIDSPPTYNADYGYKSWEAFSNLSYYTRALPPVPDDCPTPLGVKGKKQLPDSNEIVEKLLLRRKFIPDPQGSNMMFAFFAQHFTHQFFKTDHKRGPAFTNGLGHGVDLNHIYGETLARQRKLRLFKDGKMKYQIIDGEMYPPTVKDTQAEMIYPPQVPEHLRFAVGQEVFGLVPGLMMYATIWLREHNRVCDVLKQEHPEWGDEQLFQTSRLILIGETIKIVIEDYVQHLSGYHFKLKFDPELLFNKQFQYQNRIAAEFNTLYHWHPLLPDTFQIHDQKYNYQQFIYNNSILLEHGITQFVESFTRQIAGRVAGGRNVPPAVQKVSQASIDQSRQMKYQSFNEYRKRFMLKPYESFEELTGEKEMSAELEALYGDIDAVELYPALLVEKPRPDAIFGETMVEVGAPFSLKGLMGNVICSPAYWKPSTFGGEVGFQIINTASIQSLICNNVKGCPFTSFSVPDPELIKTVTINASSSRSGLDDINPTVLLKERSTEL

Sequence of Mu-type opioid receptor (Homo sapiens) (P35372 whole entry): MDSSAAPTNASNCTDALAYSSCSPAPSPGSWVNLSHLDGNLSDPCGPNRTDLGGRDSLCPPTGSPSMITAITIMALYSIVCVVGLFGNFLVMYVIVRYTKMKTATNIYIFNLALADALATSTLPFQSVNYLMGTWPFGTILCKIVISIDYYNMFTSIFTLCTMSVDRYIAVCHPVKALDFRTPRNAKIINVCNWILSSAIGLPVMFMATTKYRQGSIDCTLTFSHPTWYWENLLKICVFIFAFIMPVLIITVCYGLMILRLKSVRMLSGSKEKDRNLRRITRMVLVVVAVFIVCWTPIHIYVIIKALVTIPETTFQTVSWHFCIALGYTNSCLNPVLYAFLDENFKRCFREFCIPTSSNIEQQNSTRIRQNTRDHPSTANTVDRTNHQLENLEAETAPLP
Sequence of Caspase-3 (Homo sapiens) (P42574 29-175 limits assumed): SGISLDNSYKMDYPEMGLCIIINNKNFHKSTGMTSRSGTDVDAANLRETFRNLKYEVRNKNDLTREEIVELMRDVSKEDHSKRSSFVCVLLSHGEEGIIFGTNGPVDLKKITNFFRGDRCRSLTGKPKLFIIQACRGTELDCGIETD
Sequence of Caspase-3 (Homo sapiens) (P42574 176-277 limits assumed): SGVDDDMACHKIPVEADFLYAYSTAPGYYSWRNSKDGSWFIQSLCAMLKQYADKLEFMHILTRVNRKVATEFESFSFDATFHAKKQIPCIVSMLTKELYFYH
Sequence of Melanocortin receptor 4 (Homo sapiens) (P32245 whole entry): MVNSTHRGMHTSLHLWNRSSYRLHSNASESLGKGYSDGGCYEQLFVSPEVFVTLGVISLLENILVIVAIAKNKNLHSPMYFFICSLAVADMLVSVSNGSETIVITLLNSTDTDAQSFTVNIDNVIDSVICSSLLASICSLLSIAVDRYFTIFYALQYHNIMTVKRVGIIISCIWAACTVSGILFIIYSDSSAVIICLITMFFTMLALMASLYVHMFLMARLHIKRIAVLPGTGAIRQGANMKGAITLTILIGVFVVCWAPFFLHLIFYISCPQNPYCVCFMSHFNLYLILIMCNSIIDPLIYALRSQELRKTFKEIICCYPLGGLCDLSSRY
Sequence of Adenosine receptor A1 (Homo sapiens) (P30542 whole entry): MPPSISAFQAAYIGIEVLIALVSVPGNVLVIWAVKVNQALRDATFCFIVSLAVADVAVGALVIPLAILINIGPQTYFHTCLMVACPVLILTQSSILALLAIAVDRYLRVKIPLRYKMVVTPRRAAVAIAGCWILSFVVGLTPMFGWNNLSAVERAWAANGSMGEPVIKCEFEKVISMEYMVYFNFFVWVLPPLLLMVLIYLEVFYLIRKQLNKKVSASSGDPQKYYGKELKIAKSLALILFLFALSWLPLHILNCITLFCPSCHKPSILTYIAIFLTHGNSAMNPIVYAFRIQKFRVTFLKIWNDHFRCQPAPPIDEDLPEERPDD
Sequence of Adenosine receptor A3 (Homo sapiens) (P0DMS8 whole entry): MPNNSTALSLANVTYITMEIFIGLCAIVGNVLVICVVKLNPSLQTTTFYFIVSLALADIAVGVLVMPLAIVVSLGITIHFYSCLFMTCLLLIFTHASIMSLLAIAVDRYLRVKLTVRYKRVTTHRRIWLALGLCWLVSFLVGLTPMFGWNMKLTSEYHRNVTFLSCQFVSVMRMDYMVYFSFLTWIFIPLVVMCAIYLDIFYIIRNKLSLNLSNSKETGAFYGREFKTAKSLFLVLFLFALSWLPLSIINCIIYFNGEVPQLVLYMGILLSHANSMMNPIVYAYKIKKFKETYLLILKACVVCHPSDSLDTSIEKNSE
Sequence of Endothelin receptor type B (Homo sapiens) (P24530 whole entry): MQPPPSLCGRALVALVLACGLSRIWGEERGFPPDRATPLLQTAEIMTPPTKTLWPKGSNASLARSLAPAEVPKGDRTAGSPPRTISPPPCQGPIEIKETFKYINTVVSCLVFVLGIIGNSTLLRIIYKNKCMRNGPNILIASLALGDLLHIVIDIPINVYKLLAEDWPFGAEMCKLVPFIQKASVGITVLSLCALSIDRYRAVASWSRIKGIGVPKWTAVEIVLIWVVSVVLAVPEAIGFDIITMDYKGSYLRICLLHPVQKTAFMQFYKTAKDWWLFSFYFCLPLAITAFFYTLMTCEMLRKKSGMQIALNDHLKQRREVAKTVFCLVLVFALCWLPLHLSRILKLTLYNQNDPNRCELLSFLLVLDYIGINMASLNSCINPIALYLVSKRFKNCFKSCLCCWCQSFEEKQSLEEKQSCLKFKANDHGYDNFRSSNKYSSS
Sequence of Vasopressin V1a receptor (Homo sapiens) (P37288 whole entry, looked up): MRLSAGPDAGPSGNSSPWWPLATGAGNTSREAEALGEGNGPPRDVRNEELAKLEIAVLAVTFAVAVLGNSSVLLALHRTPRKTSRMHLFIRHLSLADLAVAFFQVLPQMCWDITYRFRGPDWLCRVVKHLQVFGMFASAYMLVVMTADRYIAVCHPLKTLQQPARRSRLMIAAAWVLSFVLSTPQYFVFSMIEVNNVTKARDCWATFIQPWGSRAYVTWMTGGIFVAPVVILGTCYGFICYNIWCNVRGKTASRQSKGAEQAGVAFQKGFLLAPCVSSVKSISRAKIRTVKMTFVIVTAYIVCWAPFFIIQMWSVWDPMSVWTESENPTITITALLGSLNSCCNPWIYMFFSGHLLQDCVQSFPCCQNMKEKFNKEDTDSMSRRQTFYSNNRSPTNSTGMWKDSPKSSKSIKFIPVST
Sequence of Histamine H2 receptor (Homo sapiens) (P25021 whole entry): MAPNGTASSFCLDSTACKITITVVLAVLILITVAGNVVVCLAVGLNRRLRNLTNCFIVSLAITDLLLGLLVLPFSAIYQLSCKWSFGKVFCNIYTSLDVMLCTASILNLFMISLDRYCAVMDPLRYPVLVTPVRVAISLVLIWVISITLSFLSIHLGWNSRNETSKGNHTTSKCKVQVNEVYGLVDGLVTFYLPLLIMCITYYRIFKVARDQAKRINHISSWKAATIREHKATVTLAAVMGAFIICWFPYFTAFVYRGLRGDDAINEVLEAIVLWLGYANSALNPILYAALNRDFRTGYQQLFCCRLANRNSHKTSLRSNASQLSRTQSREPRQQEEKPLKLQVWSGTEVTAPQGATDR
Sequence of M-phase inducer phosphatase 1 (Homo sapiens) (P30304 whole entry): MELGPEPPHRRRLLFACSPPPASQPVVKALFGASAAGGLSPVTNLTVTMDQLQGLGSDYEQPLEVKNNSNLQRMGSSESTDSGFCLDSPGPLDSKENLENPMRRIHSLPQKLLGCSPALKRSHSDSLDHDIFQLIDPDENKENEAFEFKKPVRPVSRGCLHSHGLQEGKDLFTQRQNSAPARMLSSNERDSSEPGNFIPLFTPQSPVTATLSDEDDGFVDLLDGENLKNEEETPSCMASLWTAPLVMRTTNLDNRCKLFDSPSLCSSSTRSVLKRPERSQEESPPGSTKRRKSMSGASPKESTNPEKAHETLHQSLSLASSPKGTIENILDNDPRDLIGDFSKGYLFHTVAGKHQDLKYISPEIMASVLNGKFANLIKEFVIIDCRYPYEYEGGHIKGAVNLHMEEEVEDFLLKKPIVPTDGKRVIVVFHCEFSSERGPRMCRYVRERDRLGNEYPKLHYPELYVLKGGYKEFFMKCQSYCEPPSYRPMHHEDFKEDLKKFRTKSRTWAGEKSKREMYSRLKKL
Sequence of Acetylcholinesterase (Homo sapiens) (P22303 whole entry): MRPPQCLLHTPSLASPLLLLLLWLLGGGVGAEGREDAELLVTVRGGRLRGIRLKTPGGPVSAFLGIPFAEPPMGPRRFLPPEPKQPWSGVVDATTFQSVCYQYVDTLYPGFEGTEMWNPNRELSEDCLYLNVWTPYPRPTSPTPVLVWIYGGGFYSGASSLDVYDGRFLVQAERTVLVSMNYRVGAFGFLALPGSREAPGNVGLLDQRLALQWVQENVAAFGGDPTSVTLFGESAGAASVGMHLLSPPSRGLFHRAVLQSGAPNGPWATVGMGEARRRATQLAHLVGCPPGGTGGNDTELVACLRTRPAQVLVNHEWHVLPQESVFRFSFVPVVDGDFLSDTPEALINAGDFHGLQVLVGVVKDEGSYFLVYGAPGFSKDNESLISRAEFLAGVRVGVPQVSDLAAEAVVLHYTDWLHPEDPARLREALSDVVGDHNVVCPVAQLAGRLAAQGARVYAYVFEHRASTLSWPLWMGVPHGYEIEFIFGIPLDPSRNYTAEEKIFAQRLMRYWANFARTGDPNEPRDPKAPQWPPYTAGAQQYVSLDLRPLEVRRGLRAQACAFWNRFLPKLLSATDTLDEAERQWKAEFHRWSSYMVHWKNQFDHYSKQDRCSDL

## CCOc1c(Cl)cc(C(=O)Nc2ccc(C(=O)O)c(C)c2)cc1OC(C)C
[1]
  Activity: < 25%
[2]
  Activity: < 25%
[3]
  Activity: < 25%
[4]
  Activity: < 25%
[5]
  Activity: < 25%
[6]
  Activity: < 25%
[7]
  Activity: < 25%
[8]
  Activity: < 25%
[9]
  Activity: < 25%
[10]
  Activity: < 25%
[11]
  Activity: < 25%
[12]
  Activity: < 25%
[13]
  Activity: < 25%
[14]
  Activity: < 25%
[15]
  Activity: < 25%
[16]
  Activity: < 25%
[17]
  Activity: < 25%
[18]
  Activity: < 25%
[19]
  Activity: < 25%
[20]
  Activity: < 25%
[21]
  Activity: < 25%
[22]
  Activity: < 25%
[23]
  Activity: < 25%
[24]
  Activity: < 25%
[25]
  Activity: < 25%
[26]
  Activity: < 25%
[27]
  Activity: < 25%
[28]
  Activity: < 25%
[29]
  Activity: < 25%
[30]
  Activity: < 25%
[31]
  Activity: < 25%
[32]
  Activity: < 25%
[33]
  activity at 20 min, 10 µM: ≤ 25%
[34]
  Activity: < 25%
[35]
  Activity: < 25%

Reference: ChEMBL document CHEMBL4184197 (Bioorg Med Chem, 2018)
